Where a name gives a salt, the structure may show the parent alone.
Tests used:
[1] = tested on: CT-26 Colon carcinoma cells; test: CT-26 colon carcinoma lung metastases model, alone or with doxorubicin or docetaxel; format: in vivo, Balb/C mice; settings: CT-26 lung metastases; I.P. every 3 days for 3 cycles; day 20
Protocol: FIG. 3 illustrates the effect of compounds administered in conjunction with doxorubicin in an in vivo model of metastatic colon cancer (CT-26 adenocarcinoma). Syngeneic CT-26 Colon carcinoma cells were injected I.V. in order to establish lung metastases in Balb/C mice. Beginning 10 days after cells were injected, indicated test agents were given I.P. every 3 days for 3 cycles. Animals were sacrificed at day 20, lungs were collected, and weighed. Net tumor burden is the weight of tumor-bearing lungs minus the average weight of normal control lungs. N=5/group, p<0.02. In these graphs, compound A is 6,7-bis(4-hydroxyphenyl)-pteridin-4-ylamine sulfate salt, and compound B is 6,7-diphenyl-pteridine-2,4-diamine.
FIG. 4 illustrates the effects of compounds of the present invention for co-drug therapy with Taxotere as described herein. Syngeneic CT-26 Colon carcinoma cells were used in order to establish lung metastases in Balb/C mice as described for FIG. 3. 6,7-bis(4-hydroxyphenyl)-pteridin-4-ylamine, sulfate salt (compound A) and 6,7-diphenyl-pteridine-2,4-diamine (compound B) from FIG. 1 are shown in FIG. 4.
FIG. 6 illustrates the effect of compounds administered in conjunction with docetaxel in the in vivo model of metastatic colon cancer (CT-26 adenocarcinoma) described for FIG. 4. N=5/group, p<0.02. […]

[2] = tested on: edema formation induced using histamine as an agonist; test: Miles assay with histamine as agonist; format: in vivo, Sprague-Dawley rats; settings: 1.5 mg/kg; histamine 10 μg/injection site; vehicle 12
Protocol: Sprague-Dawley rats were first injected IV with vehicle alone or test agent, followed by IV injection of Evans blue dye, followed by intradermal injections of saline and VEGF (200 ng/injection site) along both shaved flanks. After 45 min, intradermal injection sites were photographed and then scored by a blinded observer for extravasation of Evans blue dye into the dermis (dermal bluing) according to a 4 point scoring system (3=maximal bluing, ≧75% of response in vehicle-treated animals; 2=medium bluing, >25% but <75% of vehicle-treated animals; 1=minimal bluing, ≦25% of vehicle-treated animals; 0=bluing equivalent to saline injection sites on same animal). Individual scores for 4 injection sites (from 2 separate animals) were summed and are shown as a scale of 0-12, with a lower score indicating the greater anti-edema activity; note that all vehicle-treated groups score a value of 12, based on the scoring system outlined above.
The ability of test agents to influence edema induced by agonists other than VEGF was also tested. Compounds cited in this application inhibited edema formation induced using histamine as an agonist, for example, as shown below.
The ability of test agent to influence vascular edema was tested as above, except that the ability to block edema was tested using either VEGF or histamine as the agonist (200 ng and 10 μg/injection site, respectively).

cerebral stroke = test: Cerebral stroke model, permanent middle cerebral artery occlusion; format: in vivo, mice; settings: 1 mg/kg BW IV 60 min after ligation, 24 hours
Protocol: A rodent model of cerebral stroke, in which the middle cerebral artery is permanently occluded, was used to determine whether test agents reduced infarct size at 24 hours.
Cerebral strokes were created in mice by permanent ligation of the middle cerebral artery using a cauterizing tool, followed 60 min later by IV injection of either vehicle alone (50% PEG400 in water) or test agents (at 1 mg/kg BW). Twenty four hours later, brains were sectioned and stained using triphenyltetrazolium chloride to delineate viable from infarcted tissue. Photographic images were then analyzed using morphometric software to calculate infarct area.

angiogenesis = test: Matrigel plug angiogenesis model (bFGF or VEGF), FITC-lectin; format: in vivo, Athymic WeHi (nu/nu) mice; settings: 10 mg/kg i.p. bid for four days; matrigel with bFGF or VEGF
Protocol: FIGS. 13 and 14 illustrate the effects of invention compounds for their capacity to inhibit angiogenesis in vivo. […] Tumor extracellular matrix infused with the 160 ng of the described growth factors were injected subcutaneously in a Balb/C mouse. The described invention compound was injected daily at the described concentration for 5 days. After 5 days the animals were sacrificed and angiogenesis quantified based on the binding of fluorescently labeled, endothelium specific FITC-lectin. In the graph, compound A is 6,7-bis(4-hydroxyphenyl)-pteridin-4-ylamine sulfate salt.
Referring to FIGS. 13 and 14, a murine model of angiogenesis was used to screen compounds for their capacity to inhibit angiogenesis. […] In the graph, compound A is 6,7-bis(4-hydroxyphenyl)-pteridin-4-ylamine sulfate salt. Athymic WeHi (nu/nu) mice were first injected with 400 lls of an ice-cold tumor-derived extracellular matrix substrate, matrigel (Becton-Dickinson) infused with 400 ng/ml of bFGF or VEGF (R&D Systems) which rapidly solidifies into a subdermal plug at body temperature. Mice were subsequently injected intaperitoneally with 10 mg/kg of the indicated compounds bid for four days. […] Twenty minutes after injection of the lectin, mice were euthanized, matrigel plugs were then extracted, solublized in PBS with mechanical grinding and the fluorescent content of individual plugs was quantified. […]

## Nc1ncnc2nc(-c3ccc(O)cc3)c(-c3ccc(O)cc3)nc12 [compound A, 6,7-bis(4-hydroxyphenyl)-pteridin-4-ylamine sulfate salt]
[1]
  reduction of tumor burden in combination with docetaxel: greater than 80%
  reduction of tumor burden in combination with doxorubicin: greater than 60%
[2]
  Score with histamine as agonist (scale of 0-12): 3
Cerebral stroke
  Infarct area in mm^3 (mean ± SEM): 18.3 ± 2.6 mm^3
Cerebral stroke; vs vehicle
  % Infarct reduction: 53%
angiogenesis
  inhibition of angiogenesis in vivo: successfully inhibited angiogenesis in vivo
